In PMC7987348, “Structural basis for human TRPC5 channel inhibition by two distinct inhibitors” (eLife, 2021):
Positions count from the first letter of the chain named. Like-named read-outs stand apart in the source and are kept apart here.

Columns and labels:
[1] = molecular target: T1, hTRPC5 S495A (Homo sapiens, UniProt Q9UL62, S495A); test: FLIPR calcium assay, hTRPC5 mutant S495A; assay type: cell-based
T1 construct: We use full-length nontagged hTRPC5 construct for FLIPR assay unless indicated otherwise; expressed in transfected cells; host or cells: AD293
T1 sequence (Q9UL62 1-973 S495A): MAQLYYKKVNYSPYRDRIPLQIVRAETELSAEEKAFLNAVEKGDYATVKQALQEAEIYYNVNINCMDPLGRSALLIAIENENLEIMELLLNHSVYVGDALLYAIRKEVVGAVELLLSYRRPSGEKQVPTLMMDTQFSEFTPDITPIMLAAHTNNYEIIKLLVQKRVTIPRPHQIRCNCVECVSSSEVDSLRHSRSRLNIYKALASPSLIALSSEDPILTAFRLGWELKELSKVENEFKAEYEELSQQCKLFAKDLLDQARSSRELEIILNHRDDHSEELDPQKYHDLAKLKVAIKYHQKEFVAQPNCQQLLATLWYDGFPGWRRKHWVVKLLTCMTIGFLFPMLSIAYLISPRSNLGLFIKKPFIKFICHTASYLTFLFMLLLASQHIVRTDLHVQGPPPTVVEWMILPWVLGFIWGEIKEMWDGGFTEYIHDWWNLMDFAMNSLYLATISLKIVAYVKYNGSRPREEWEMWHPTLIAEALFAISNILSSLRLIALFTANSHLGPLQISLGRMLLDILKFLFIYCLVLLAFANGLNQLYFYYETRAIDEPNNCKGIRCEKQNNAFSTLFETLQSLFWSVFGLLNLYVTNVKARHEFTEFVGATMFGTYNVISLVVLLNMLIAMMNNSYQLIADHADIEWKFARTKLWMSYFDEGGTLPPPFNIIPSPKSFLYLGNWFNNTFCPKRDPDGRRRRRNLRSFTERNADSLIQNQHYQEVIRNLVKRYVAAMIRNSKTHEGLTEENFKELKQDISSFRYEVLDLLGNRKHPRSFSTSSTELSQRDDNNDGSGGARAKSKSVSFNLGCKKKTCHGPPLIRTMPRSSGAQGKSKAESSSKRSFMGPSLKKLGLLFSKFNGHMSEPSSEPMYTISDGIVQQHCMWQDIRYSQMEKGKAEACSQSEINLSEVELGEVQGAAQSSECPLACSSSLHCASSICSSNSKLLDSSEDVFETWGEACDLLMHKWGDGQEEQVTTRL
Protocol: […]. Then the suspended cell culture was further diluted for 5.4- to 7-fold with culture medium and seeded onto black well, clear bottom, poly-D-lysine-coated 96-well plate (Costar) and cultured overnight. We use full-length nontagged hTRPC5 construct for FLIPR assay unless indicated otherwise. hTRPC5 plasmids were transfected into AD293 cells (60-80% confluence) with PEI. 30–40 hr post-transfection, culture medium was discarded and cells were incubated with 50 μl per well of 4 μM Rhod-2/AM (AAT Bioquest) in TARODES’s buffer (10 mM HEPES, 150 mM NaCl, 4 mM KCl, 2 mM MgCl2, 2 mM CaCl2, 11 mM glucose, pH 7.4) supplemented with 0.02% Pluronic F-127 (Sigma) for 5 min in dark at room temperature. Then dye was removed and replaced with 50 μl of TARODE’s buffer per well. The application of compounds and detection of intracellular calcium elevation were performed using FLIPR-TETRA (Molecular Devices) at room temperature (25–27°C). Fluorescence signals were read with excitation/emission at 510–545/565–625 nm.
[…]. Then fluorescence was measured for 300 s.
Buffer A contains 2× concentration of working concentration of inhibitor. […]. for control-Min, both buffer A and buffer B were replaced by TARODE’s buffer.
[…]; the average of fluorescence value of last 20 time points was considered as the ‘end fluorescence’. The value of ‘end fluorescence’ minus ‘start fluorescence’ was considered as ‘signal value’ for each well. […].
Three independent experiments were performed on different days (biological replicates), with each experiment containing three replicates (technique replicates).

[2] = molecular target: T2, hTRPC5 (Homo sapiens, UniProt Q9UL62); test: Whole cell recording of EA-elicited hTRPC5 currents in low calcium condition; settings: 50 μM CMZ; 200 nM EA; 1 mM EGTA and 1 mM EDTA to chelate intracellular Ca2+; −60 mV
T2 sequence (Q9UL62 1-973): T1 sequence (Q9UL62 1-973 S495A) with A495S

[3] = test system: TRPC7; design: method as in Richter et al., 2014; settings: ref Richter et al., 2014; cited from earlier work

For `Clc1ccc(Cn2c(CN3CCCC3)nc3ccccc32)cc1` [CMZ, clemizole], the Hill slope ([1]; CMZ) was −1.21, the IC50 ([1]; CMZ, 14 mM extracellular calcium, read-out: IC50) was 3.03 µM and the IC50 ([1]; CMZ, log of IC50 in μM, logIC50 ± SEM, n = 3, read-out: LogIC50 (converted)) was 3.02 µM. The remaining activity at 0.200195 µM ([1]; read-out: normalized RFU (% WT), Clemizole 0.200195 μM, 14 mM Ca2+, each column one independent experiment) was 83%, the remaining activity at 0.400391 µM ([1]; read-out: normalized RFU (% WT), Clemizole 0.400391 μM, 14 mM Ca2+, each column one independent experiment) was 78.4% and the remaining activity at 0.800781 µM ([1]; read-out: normalized RFU (% WT), Clemizole 0.800781 μM, 14 mM Ca2+, each column one independent experiment) was 82%. The remaining activity at 1.60156 µM ([1]; read-out: normalized RFU (% WT), Clemizole 1.60156 μM, 14 mM Ca2+, each column one independent experiment) was 79.3%, the remaining activity at 3.20312 µM ([1]; read-out: normalized RFU (% WT), Clemizole 3.20312 μM, 14 mM Ca2+, each column one independent experiment) was 50.6% and the remaining activity at 6.40625 µM ([1]; read-out: normalized RFU (% WT), Clemizole 6.40625 μM, 14 mM Ca2+, each column one independent experiment) was 46.5%. For the same compound, the remaining activity at 12.8125 µM ([1]; read-out: normalized RFU (% WT), Clemizole 12.8125 μM, 14 mM Ca2+, each column one independent experiment) was 40.3%, the “inhibition of EA-elicited currents” value [2] was “could inhibit EA-elicited currents” and the “fold more potent against TRPC5 than TRPC7” value [3] was 26 fold.
